Type in all cases: functional, cell-based
The test system of test [1] is KG-1. Put plainly: Cytotoxicity against human KG-1 cells assessed as reduction in cell viability incubated for 48 hrs by CCK-8 assay. Conditions: KG-1, 48 h. For orientation: Tetrazolium assays rely on reduction of a dye to a coloured formazan, in cell work by metabolically active cells.
The subject of test [2] is HL-60. The test is described as follows: Cytotoxicity against human HL-60 cells assessed as reduction in cell viability incubated for 48 hrs by CCK-8 assay. Conditions: HL-60, 48 h.
In test [3] the test system is HL-60. The test is described as follows: Induction of apoptosis in human HL-60 cells assessed as increase in Bax expression at 10 to 30 uM incubated for 48 hrs by Western blot analysis. The note with it: dose 10-30 µM. (A western blot detects proteins with antibodies after separation by electrophoresis.)
Test [4] concerns HL-60. The test is described as follows: Induction of apoptosis in human HL-60 cells assessed as caspase 3 activation incubated for 48 hrs by Western blot analysis. Conditions: dose 10-30 µM.
The test system of test [5] is HL-60. Put plainly: Induction of apoptosis in human HL-60 cells assessed as increase in Cyt-c expression at 10 to 30 uM incubated for 48 hrs by Western blot analysis. The note with it: dose 10-30 µM.
Test [6] relates to KG-1. Put plainly: Induction of apoptosis in human KG-1 cells assessed as caspase 3 activation incubated for 48 hrs by Western blot analysis. Conditions: dose 10-30 µM.
Test [7] concerns KG-1. Put plainly: Induction of apoptosis in human KG-1 cells assessed as caspase 9 activation incubated for 48 hrs by Western blot analysis. The note with it: dose 10-30 µM.
Test [8] relates to KG-1. The test is described as follows: Induction of apoptosis in human KG-1 cells assessed as increase in PARP cleavage incubated for 48 hrs by Western blot analysis. Conditions: dose 10-30 µM.
Test [9] deals with HL-60. Put plainly: Induction of apoptosis in human HL-60 cells assessed as caspase 9 activation incubated for 48 hrs by Western blot analysis. Conditions: dose 10-30 µM.
Test [10] relates to HL-60. The test is described as follows: Induction of apoptosis in human HL-60 cells assessed as increase in PARP cleavage incubated for 48 hrs by Western blot analysis. The note with it: dose 10-30 µM.
The test system of test [11] is HL-60. Put plainly: Induction of apoptosis in human HL-60 cells assessed as decrease in Bcl2 expression incubated for 48 hrs by Western blot analysis. Conditions: dose 10-30 µM.

Active and inactive are the calls of the source. The rule behind the calls is not given here. A value given as a limit tells only on which side of the number the result lay.

One may read the IC50 as the concentration that inhibits the measured activity by half.

Consider `COC(=O)[C@]1(C)[C@@H]2[C@@H](O)C(=O)[C@H]3[C@@H](C)/C(=C/C(=O)O)CC[C@@H]3[C@@]2(C)CC[C@@H]1O`, for which the results for the IC50 in test [1] and in test [2] were > 50 µM and 28.7 µM, respectively.
For `COC(=O)[C@]1(C)[C@@H]2C(=O)[C@H](OC(C)=O)[C@H]3[C@@H](C)/C(=C/C(=O)O)CC[C@@H]3[C@@]2(C)CC[C@@H]1O`, the result in test [3] and in [5] was Active. The Activity entry in [4], in test [6], in test [7], in [8], in test [9] and in test [10] was “Dose-dependent effect” in each case. In test [11], the Activity result was “Dose-dependent effect”. In addition, the figures for the IC50 in [1] and in test [2] were 18.6 µM and 15.2 µM, respectively.
As to `COC(=O)[C@]1(C)[C@@H]2C(=O)[C@H](O)[C@H]3[C@@H](C)/C(=C/C(=O)O)CC[C@@H]3[C@@]2(C)CC[C@@H]1O`, the IC50 in test [1] came to 35.7 µM; in [2], 24.3 µM.
The like results for `COC(=O)CC1=CC[C@H]2[C@@H](C(=O)[C@H](O)[C@@H]3[C@]2(C)CCC[C@]3(C)C(=O)OC)[C@H]1C` were, in that order, 42.2 µM and 28.5 µM.
The like results for `ClCCl` [METHYLENE CHLORIDE] were, in that order, 149 µg/mL and 116 µg/mL.
The like results for `COC(=O)/C=C1\CC[C@H]2[C@@H](C(=O)[C@H](O)[C@@H]3[C@]2(C)CC[C@H](O)[C@]3(C)C(=O)OC)[C@H]1C` were, in that order, > 50 µM and 25.7 µM.
Regarding `CC[C@@]1(O)C(=O)OCc2c1cc1n(c2=O)Cc2cc3ccccc3nc2-1` [CAMPTOTHECIN], the IC50 worked out at 1.6 µM in [1] and 1.7 µM in test [2].
The like results for `CCOC(C)=O` [ETHYL ACETATE] were, in that order, > 300 µg/mL and 216 µg/mL.
Regarding `CCCCCC` [HEXANE], in test [2], the IC50 was > 300 µg/mL.

The values above are taken from ChEMBL document CHEMBL4673274, “Cytotoxic components from the leaves of Erythrophleum fordii induce human acute leukemia cell apoptosis through caspase 3 activation and PARP cleavage” (Bioorg Med Chem Lett, 2021).
